{"source": "patent US10294202B2", "about": "“Pyrrolidinones as herbicides” (FMC Corporation, priority 2013, dated 2019)", "key": {"velvetleaf": {"test_system": "velvetleaf", "experiment": "Test C pre-/postemergence herbicide test", "type": "in vivo, Abutilon theophrasti", "method_in_brief": "(§1)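 Herbicidal effect was judged by eye 13 to 15 days after treatment in the greenhouse, using a 0–100 scale against controls. Chemicals in a non-phytotoxic solvent with surfactant were sprayed onto planted loam/sand soil or onto plants 2 to 18 cm tall in a peat-based growing medium.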"}, "nutsedge, yellow": {"test_system": "nutsedge, yellow", "experiment": "Test C pre-/postemergence herbicide test", "type": "in vivo, Cyperus esculentus", "method_in_brief": "as §1"}, "oilseed rape": {"test_system": "oilseed rape", "experiment": "Test C pre-/postemergence herbicide test", "type": "in vivo, Brassica napus", "method_in_brief": "as §1"}, "ragweed": {"test_system": "ragweed", "experiment": "Test C pre-/postemergence herbicide test", "type": "in vivo, Ambrosia elatior", "method_in_brief": "as §1"}, "oat, wild": {"test_system": "oat, wild", "experiment": "Test C pre-/postemergence herbicide test", "type": "in vivo, Avena fatua", "settings": "Postemergence", "description": "Seeds of plant species selected from blackgrass (Alopecurus myosuroides), ryegrass, Italian (Italian ryegrass, Lolium multiflorum), wheat (winter wheat, Triticum aestivum), galium (catchweed bedstraw, Galium aparine), corn (Zea mays), crabgrass, large (large crabgrass, Digitaria sanguinalis), foxtail, giant (giant foxtail, Setaria faberii), johnsongrass (Sorghum halepense), lambsquarters (Chenopodium album), morningglory (Ipomoea coccinea), nutsedge, yellow (yellow nutsedge, Cyperus esculentus), pigweed (Amaranthus retroflexus), ragweed (common ragweed, Ambrosia elatior), soybean (Glycine max), barnyardgrass (Echinochloa crus-galli), oilseed rape (Brassica napus), waterhemp (common waterhemp, Amaranthus rudis), kochia (Kochia scoparia), oat, wild (wild oat, Avena fatua), surinam grass (Brachiaria decumbens), foxtail, green (green foxtail, Setaria viridis), goosegrass (Eleusine indica), bromegrass, downy (downy bromegrass, Bromus tectorum), nightshade (eastern black nightshade, Solanum ptycanthum), cocklebur (common cocklebur, Xanthium strumarium), cupgrass, woolly (woolly cupgrass, Eriochloa villosa), bermudagrass (Cynodon dactylon), sunflower, (common oilseed sunflower, Helianthus annuus), Russian thistle (Salsola kali) and velvetleaf (Abutilon theophrasti) were planted into a blend of loam soil and sand and treated preemergence with test chemicals formulated in a non-phytotoxic solvent mixture which included a surfactant. At the same time, plants selected from these crop and weed species and also barley (winter barley, Hordeum vulgare), […]), chickweed (common chickweed, Stellaria media), deadnettle (henbit deadnettle, Lamium amplexicaule), and canarygrass (littleseed canarygrass, Phalaris minor) were planted in pots containing Redi-Earth® planting medium (Scotts Company, 14111 Scottslawn Road, Marysville, Ohio 43041) comprising spaghnum peat moss, vermiculite, wetting agent and starter nutrients and treated with postemergence applications of test chemicals formulated in the same manner. Plants ranged in height from 2 to 18 cm (1- to 4-leaf stage) for postemergence treatments. Treated plants and controls were maintained in a greenhouse for 13 to 15 days, after which time all species were compared to controls and visually evaluated. Plant response ratings, summarized in Table C, are based on a scale of 0 to 100 where 0 is no effect and 100 is complete control. A dash (-) response means no test result."}, "waterhemp": {"test_system": "waterhemp", "experiment": "Test C pre-/postemergence herbicide test", "type": "in vivo, Amaranthus rudis", "method_in_brief": "as §1"}, "blackgrass": {"test_system": "blackgrass", "experiment": "Test C pre-/postemergence herbicide test", "type": "in vivo, Alopecurus myosuroides", "method_in_brief": "as §1"}, "pigweed": {"test_system": "pigweed", "experiment": "Test C pre-/postemergence herbicide test", "type": "in vivo, Amaranthus retroflexus", "method_in_brief": "as §1"}, "giant foxtail": {"test_system": "giant foxtail", "experiment": "Test A pre-/postemergence herbicide test", "type": "in vivo, Setaria faberii", "settings": "for Plant response rating, Foxtail, Giant: 0 to 100 scale", "method_in_brief": "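Both application timings used compounds in a non-phytotoxic solvent plus surfactant. Pre-emergence: soil sprayed directly after seeding into loam/sand. Post-emergence: foliage of 2–10 cm seedlings (1–2 leaves) sprayed. Injury rated ~10 days later, 0–100.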"}, "[1]": {"settings": "Postemergence, 31 g ai/ha, scale 0 to 100 (0 no effect, 100 complete control)"}, "[2]": {"settings": "Postemergence, 62 g ai/ha, scale 0 (no effect) to 100 (complete control)"}, "[3]": {"settings": "Postemergence, 125 g ai/ha, scale 0 to 100 (0 no effect, 100 complete control)"}, "[4]": {"settings": "Postemergence, 250 g ai/ha, scale 0 to 100 (0 no effect, 100 complete control)"}, "[5]": {"settings": "Preemergence, 31 g ai/ha, scale 0 to 100, 0 is no effect and 100 is complete control"}, "[6]": {"settings": "Preemergence, 62 g ai/ha, scale 0 to 100 (0 no effect, 100 complete control)"}, "[7]": {"settings": "Preemergence, 125 g ai/ha, scale 0 to 100 (0 no effect, 100 complete control)"}}}
{"molecule": "O=C1NCC(c2cccc(C(F)(F)F)c2)C1C(=O)Nc1ccc(F)cc1F", "note": "(racemic) [Compound 207]", "values": [{"measurement": "Plant response rating, Velvetleaf", "setting": "velvetleaf; [1]", "value": 0}, {"measurement": "Plant response rating, Velvetleaf", "setting": "velvetleaf; [2]", "value": 0}, {"measurement": "Plant response rating, Velvetleaf", "setting": "velvetleaf; [3]", "value": 0}, {"measurement": "Plant response rating, Velvetleaf", "setting": "velvetleaf; [4]", "value": 0}, {"measurement": "Velvetleaf plant response rating", "setting": "velvetleaf; [5]", "value": 0}, {"measurement": "Velvetleaf plant response rating", "setting": "velvetleaf; [6]", "value": 0}, {"measurement": "Plant response rating, Velvetleaf", "setting": "velvetleaf; [7]", "value": 0}, {"measurement": "Plant response rating (scale of 0 to 100), Velvetleaf", "setting": "velvetleaf; Preemergence, 250 g ai/ha", "value": 0}, {"measurement": "Plant response rating, Nutsedge, Yellow", "setting": "nutsedge, yellow; [1]", "value": 10}, {"measurement": "Plant response rating, Nutsedge, Yellow", "setting": "nutsedge, yellow; [2]", "value": 0}, {"measurement": "Plant response rating, Nutsedge, Yellow", "setting": "nutsedge, yellow; [3]", "value": 0}, {"measurement": "Plant response rating, Nutsedge, Yellow", "setting": "nutsedge, yellow; [4]", "value": 0}, {"measurement": "Nutsedge, Yellow plant response rating", "setting": "nutsedge, yellow; [5]", "value": 0}, {"measurement": "Nutsedge, Yellow plant response rating", "setting": "nutsedge, yellow; [6]", "value": 0}, {"measurement": "Plant response rating, Nutsedge, Yellow", "setting": "nutsedge, yellow; [7]", "value": 0}, {"measurement": "Plant response rating (scale of 0 to 100), Nutsedge, Yellow", "setting": "nutsedge, yellow; Preemergence, 250 g ai/ha", "value": 0}, {"measurement": "Plant response rating, Oilseed Rape", "setting": "oilseed rape; [1]", "value": 0}, {"measurement": "Plant response rating, Oilseed Rape", "setting": "oilseed rape; [2]", "value": 0}, {"measurement": "Plant response rating, Oilseed Rape", "setting": "oilseed rape; [3]", "value": 10}, {"measurement": "Plant response rating, Oilseed Rape", "setting": "oilseed rape; [4]", "value": 30}, {"measurement": "Oilseed Rape plant response rating", "setting": "oilseed rape; [5]", "value": 0}, {"measurement": "Oilseed Rape plant response rating", "setting": "oilseed rape; [6]", "value": 0}, {"measurement": "Plant response rating, Oilseed Rape", "setting": "oilseed rape; [7]", "value": 0}, {"measurement": "Plant response rating (scale of 0 to 100), Oilseed Rape", "setting": "oilseed rape; Preemergence, 250 g ai/ha", "value": 80}, {"measurement": "Plant response rating, Ragweed", "setting": "ragweed; [1]", "value": 0}, {"measurement": "Plant response rating, Ragweed", "setting": "ragweed; [2]", "value": 0}, {"measurement": "Plant response rating, Ragweed", "setting": "ragweed; [3]", "value": 0}, {"measurement": "Plant response rating, Ragweed", "setting": "ragweed; [4]", "value": 15}, {"measurement": "Ragweed plant response rating", "setting": "ragweed; [5]", "value": 0}, {"measurement": "Ragweed plant response rating", "setting": "ragweed; [6]", "value": 0}, {"measurement": "Plant response rating, Ragweed", "setting": "ragweed; [7]", "value": 0}, {"measurement": "Plant response rating (scale of 0 to 100), Ragweed", "setting": "ragweed; Preemergence, 250 g ai/ha", "value": 5}, {"measurement": "Plant response rating, Oat, Wild", "setting": "oat, wild; 31 g ai/ha, scale 0 to 100 (0 no effect, 100 complete control)", "value": 0}, {"measurement": "Plant response rating, Oat, Wild", "setting": "oat, wild; 62 g ai/ha, scale 0 (no effect) to 100 (complete control)", "value": 0}, {"measurement": "Plant response rating, Oat, Wild", "setting": "oat, wild; 125 g ai/ha, scale 0 to 100 (0 no effect, 100 complete control)", "value": 0}, {"measurement": "Plant response rating, Oat, Wild", "setting": "oat, wild; 250 g ai/ha, scale 0 to 100 (0 no effect, 100 complete control)", "value": 0}, {"measurement": "Plant response rating, Waterhemp", "setting": "waterhemp; [1]", "value": 0}, {"measurement": "Plant response rating, Waterhemp", "setting": "waterhemp; [2]", "value": 0}, {"measurement": "Plant response rating, Waterhemp", "setting": "waterhemp; [3]", "value": 0}, {"measurement": "Plant response rating, Waterhemp", "setting": "waterhemp; [4]", "value": 10}, {"measurement": "Waterhemp plant response rating", "setting": "waterhemp; [5]", "value": 0}, {"measurement": "Waterhemp plant response rating", "setting": "waterhemp; [6]", "value": 0}, {"measurement": "Plant response rating, Waterhemp", "setting": "waterhemp; [7]", "value": 85}, {"measurement": "Plant response rating (scale of 0 to 100), Waterhemp", "setting": "waterhemp; Preemergence, 250 g ai/ha", "value": 75}, {"measurement": "Plant response rating, Blackgrass", "setting": "blackgrass; [1]", "value": 0}, {"measurement": "Plant response rating, Blackgrass", "setting": "blackgrass; [2]", "value": 0}, {"measurement": "Plant response rating, Blackgrass", "setting": "blackgrass; [3]", "value": 0}, {"measurement": "Plant response rating, Blackgrass", "setting": "blackgrass; [4]", "value": 0}, {"measurement": "Blackgrass plant response rating", "setting": "blackgrass; [5]", "value": 0}, {"measurement": "Plant response rating, Blackgrass", "setting": "blackgrass; Preemergence, 62 g ai/ha, scale 0 to 100", "value": 80}, {"measurement": "Plant response rating, Blackgrass", "setting": "blackgrass; [7]", "value": 85}, {"measurement": "Plant response rating (scale of 0 to 100), Blackgrass", "setting": "blackgrass; Preemergence, 250 g ai/ha", "value": 90}, {"measurement": "Plant response rating, Pigweed", "setting": "pigweed; [1]", "value": 0}, {"measurement": "Plant response rating, Pigweed", "setting": "pigweed; [2]", "value": 10}, {"measurement": "Plant response rating, Pigweed", "setting": "pigweed; [3]", "value": 10}, {"measurement": "Plant response rating, Pigweed", "setting": "pigweed; [4]", "value": 20}, {"measurement": "Pigweed plant response rating", "setting": "pigweed; [5]", "value": 0}, {"measurement": "Pigweed plant response rating", "setting": "pigweed; [6]", "value": 0}, {"measurement": "Plant response rating, Pigweed", "setting": "pigweed; [7]", "value": 0}, {"measurement": "Plant response rating (scale of 0 to 100), Pigweed", "setting": "pigweed; Preemergence, 250 g ai/ha", "value": 0}, {"measurement": "Plant response rating, Foxtail, Giant", "setting": "giant foxtail; 125 g ai/ha, visual rating, 0 no effect, 100 complete control, approximately 10 days, preemergence", "value": 90}, {"measurement": "Plant response rating, Foxtail, Giant", "setting": "giant foxtail; Postemergence, 125 g ai/ha, 0 is no effect, 100 is complete control", "value": 90}, {"measurement": "Foxtail, Giant plant response rating (0 to 100 scale, 0 is no effect, 100 is complete control)", "setting": "giant foxtail; Postemergence, 500 g ai/ha", "value": 90}, {"measurement": "Plant response rating, Foxtail, Giant", "setting": "giant foxtail; preemergence, 500 g ai/ha, 0 is no effect and 100 is complete control", "value": 90}]}
